Drawing on patent publication US12662481B2, “Substituted 2-morpholinopyridine derivatives as ATR kinase inhibitors” (Repare Therapeutics Inc., priority 2019, dated 2026), this text covers IC50 for 8 molecules.

The term IC50 denotes the concentration at which inhibition is half-maximal.

One experiment deals with ATR/ATRIP (Homo sapiens, UniProt Q13535). In words: ATR/ATRIP enzymatic assay (AlphaScreen, phosphorylation of p53). (Bead proximity is the source of the signal in Alpha formats.)
For experiment [1], the system named is ATR (CHK1 phosphorylation at Ser345 in HeLa S3 cells). The experiment is described as follows: ATR assay in HeLa S3 cells (CHK1 p-Ser345 AlphaScreen SureFire, gemcitabine). The experiment is classed as cell-based. The following applies: HeLa S3 whole cell assay, 3.5 to 4 hours. Here is the method:
Media was then replaced by 20 μL per well Opti-MEM no phenol red and 5 μL of serial diluted compounds were added to the assay plate for a final DMSO concentration of 0.5%. […] The plate was incubated at 37° C., 5% CO2 for 3.5 to 4 hours.

[2] abbreviates: Homo sapiens, gemcitabine 1.5 μM.

Read-outs that look alike come from different tables or passages of the source.

Sequence of ATR/ATRIP (Q13535 whole entry): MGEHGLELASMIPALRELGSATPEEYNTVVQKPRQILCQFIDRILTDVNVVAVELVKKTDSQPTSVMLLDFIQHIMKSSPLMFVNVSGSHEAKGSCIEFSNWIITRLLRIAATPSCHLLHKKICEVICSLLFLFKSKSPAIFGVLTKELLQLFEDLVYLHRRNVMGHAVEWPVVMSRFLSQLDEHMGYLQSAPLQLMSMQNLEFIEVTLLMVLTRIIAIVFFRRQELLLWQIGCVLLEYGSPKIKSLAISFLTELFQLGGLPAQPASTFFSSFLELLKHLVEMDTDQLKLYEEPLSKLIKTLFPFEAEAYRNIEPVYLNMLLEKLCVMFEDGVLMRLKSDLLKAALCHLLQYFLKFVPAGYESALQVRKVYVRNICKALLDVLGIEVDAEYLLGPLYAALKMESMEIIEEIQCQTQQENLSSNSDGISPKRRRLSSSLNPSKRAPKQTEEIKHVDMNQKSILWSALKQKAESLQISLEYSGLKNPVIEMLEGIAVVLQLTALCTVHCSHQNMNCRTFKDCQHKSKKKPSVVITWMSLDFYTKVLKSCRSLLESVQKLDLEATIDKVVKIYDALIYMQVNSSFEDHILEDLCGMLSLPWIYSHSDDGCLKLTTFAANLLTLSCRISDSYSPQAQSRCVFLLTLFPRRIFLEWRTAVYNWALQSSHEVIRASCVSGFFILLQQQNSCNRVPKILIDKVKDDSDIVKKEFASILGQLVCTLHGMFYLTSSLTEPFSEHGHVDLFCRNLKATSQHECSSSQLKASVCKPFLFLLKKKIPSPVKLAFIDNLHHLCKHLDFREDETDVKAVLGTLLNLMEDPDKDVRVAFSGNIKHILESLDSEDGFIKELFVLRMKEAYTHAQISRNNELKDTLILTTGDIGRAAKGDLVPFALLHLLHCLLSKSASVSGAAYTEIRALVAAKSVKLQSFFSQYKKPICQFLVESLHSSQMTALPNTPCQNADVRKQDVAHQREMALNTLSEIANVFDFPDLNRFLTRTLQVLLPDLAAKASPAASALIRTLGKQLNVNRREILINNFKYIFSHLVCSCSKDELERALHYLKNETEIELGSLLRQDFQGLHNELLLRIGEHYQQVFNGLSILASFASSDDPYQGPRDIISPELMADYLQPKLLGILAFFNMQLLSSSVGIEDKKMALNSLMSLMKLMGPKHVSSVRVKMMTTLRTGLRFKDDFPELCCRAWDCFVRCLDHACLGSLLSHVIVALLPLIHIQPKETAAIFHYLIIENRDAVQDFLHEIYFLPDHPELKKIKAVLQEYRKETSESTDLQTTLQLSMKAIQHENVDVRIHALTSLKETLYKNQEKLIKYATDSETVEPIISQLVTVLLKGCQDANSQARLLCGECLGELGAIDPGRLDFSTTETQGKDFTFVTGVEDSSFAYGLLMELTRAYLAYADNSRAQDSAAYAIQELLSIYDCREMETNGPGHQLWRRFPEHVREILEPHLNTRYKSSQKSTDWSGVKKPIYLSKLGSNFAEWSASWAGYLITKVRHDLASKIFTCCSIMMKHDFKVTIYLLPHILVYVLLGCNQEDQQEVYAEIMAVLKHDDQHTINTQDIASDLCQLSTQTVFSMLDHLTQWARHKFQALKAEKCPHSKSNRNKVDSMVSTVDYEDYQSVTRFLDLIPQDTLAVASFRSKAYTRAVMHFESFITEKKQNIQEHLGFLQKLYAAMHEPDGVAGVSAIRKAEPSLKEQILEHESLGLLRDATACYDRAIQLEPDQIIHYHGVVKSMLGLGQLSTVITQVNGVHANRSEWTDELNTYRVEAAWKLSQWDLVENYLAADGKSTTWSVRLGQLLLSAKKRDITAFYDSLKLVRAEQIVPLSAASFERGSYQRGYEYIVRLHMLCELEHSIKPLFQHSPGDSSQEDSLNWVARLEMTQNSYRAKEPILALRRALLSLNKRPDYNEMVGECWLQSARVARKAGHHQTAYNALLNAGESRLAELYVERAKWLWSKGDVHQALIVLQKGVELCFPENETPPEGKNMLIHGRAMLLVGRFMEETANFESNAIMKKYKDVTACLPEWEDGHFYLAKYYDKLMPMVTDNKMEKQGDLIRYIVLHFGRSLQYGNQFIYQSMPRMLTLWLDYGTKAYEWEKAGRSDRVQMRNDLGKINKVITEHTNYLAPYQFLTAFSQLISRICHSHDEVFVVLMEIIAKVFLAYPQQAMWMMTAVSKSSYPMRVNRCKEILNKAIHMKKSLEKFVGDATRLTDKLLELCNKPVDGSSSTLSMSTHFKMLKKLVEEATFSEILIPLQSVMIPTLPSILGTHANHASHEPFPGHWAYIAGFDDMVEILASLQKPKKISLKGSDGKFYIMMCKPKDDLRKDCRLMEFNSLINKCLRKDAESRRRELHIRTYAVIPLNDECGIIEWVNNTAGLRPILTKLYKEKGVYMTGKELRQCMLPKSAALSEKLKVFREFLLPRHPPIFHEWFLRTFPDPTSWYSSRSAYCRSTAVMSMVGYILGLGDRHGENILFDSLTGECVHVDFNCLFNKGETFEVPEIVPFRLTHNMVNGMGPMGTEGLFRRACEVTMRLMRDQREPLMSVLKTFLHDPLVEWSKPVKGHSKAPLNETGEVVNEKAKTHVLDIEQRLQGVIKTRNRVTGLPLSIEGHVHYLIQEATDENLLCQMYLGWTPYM
Sequence of ATR/ATRIP (Q8WXE1 whole entry partner): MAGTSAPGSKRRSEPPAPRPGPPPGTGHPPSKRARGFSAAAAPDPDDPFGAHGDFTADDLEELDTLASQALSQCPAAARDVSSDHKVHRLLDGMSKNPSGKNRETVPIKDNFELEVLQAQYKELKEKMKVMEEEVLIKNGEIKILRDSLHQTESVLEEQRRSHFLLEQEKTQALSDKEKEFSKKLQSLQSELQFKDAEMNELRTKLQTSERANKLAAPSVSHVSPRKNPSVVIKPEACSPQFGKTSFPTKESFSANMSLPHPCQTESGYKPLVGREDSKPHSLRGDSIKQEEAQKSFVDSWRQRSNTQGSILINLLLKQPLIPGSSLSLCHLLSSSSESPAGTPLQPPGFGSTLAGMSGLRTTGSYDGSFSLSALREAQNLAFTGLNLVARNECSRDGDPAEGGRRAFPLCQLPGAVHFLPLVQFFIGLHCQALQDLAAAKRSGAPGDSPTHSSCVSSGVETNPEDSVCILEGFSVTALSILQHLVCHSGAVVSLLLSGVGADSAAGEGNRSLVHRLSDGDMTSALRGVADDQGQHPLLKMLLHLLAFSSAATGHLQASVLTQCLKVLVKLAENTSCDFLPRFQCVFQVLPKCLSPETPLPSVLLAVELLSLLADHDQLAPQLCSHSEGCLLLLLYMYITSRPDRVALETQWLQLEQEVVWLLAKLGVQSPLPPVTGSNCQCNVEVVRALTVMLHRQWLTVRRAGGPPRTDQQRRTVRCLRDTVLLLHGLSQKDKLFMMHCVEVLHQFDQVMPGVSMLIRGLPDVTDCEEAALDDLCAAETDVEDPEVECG
Description for ATR/ATRIP: Detection of ATR kinase activity utilized the AlphaScreen system to measure the phosphorylation of the substrate protein p53. […] Plates were incubated at room temperature in the dark for 4 hours and read on a BMG Polarstar using AlphaScreen dedicated filters. […] IC50 values were determined using a 4-parameter fit algorithm.

As for `Cc1ccncc1-c1cc(N2CCOC[C@H]2C)nc2c1ccn2-c1cc[nH]n1` [Compound 9], on ATR/ATRIP, the IC50 worked out at 371 nM.

At ATR/ATRIP, `C[C@@H]1COCCN1c1cc(-c2nncs2)c2cnn(-c3cc[nH]n3)c2n1` [Compound 33] had an IC50 of 154 nM.

Consider `CC(C#N)c1cc(N2CCOC[C@H]2C)nc2c1cnn2-c1cc[nH]n1` (some centres unmarked) [Compound 47], for which the IC50 on ATR/ATRIP (read-out: ATR IC50, recombinant ATR/ATRIP 0.63 nM, 25 nM GST-p53, 3 μM ATP, 1 hour room temperature) amounted to 12 nM.

`C[C@@H]1COCCN1c1cc([C@]2(O)C[C@H]3CC[C@@H](C2)O3)c2cnn(-c3cc[nH]n3)c2n1` [Compound 121] registered an IC50 in experiment [1] (setting [2]) of 0.9 nM.

Molecule `C[C@@H]1COCCN1c1cc(-c2ccccc2S(N)(=O)=O)c2cnn(-c3cc[nH]n3)c2n1` [Compound 126, (R)-2-(6-(3-methylmorpholino)-1-(1H-pyrazol-3-yl)-1H-pyrazolo[3,4-b]pyridin-4-yl)benzenesulfonamide] came in with an IC50 in experiment [1] (setting [2]) of 17 nM.

`C[C@@H]1COCCN1c1cc(N2CCOCC2=O)c2cnn(-c3cc[nH]n3)c2n1` [Compound 134] returned an IC50 in experiment [1] (setting [2]) of 41 nM.

In experiment [1] (setting [2]), `COC1(c2cc(N3CCOC[C@H]3C)nc3c2cnn3-c2cc[nH]n2)CCSCC1` [Compound 147] had an IC50 of 0.8 nM.

Turning to `C[C@@H]1COCCN1c1cc(-c2cccnc2C(F)(F)F)c2c(=O)[nH]n(-c3ccn[nH]3)c2n1` [Compound 151], inhibition in experiment [1] (gemcitabine […]) was half-maximal at 9.1 nM (IC50).
